For data set [1], the system named is Proteus sp. The experiment in a line: Antibacterial activity against Proteus sp. at 10 ug/ml by disc diffusion method. Conditions: Proteus sp. (in: enterobacteria); read-out: DIZ. It counts as functional.
Data set [2] deals with Pseudomonas aeruginosa. The experiment in a line: Antibacterial activity against Pseudomonas aeruginosa at 100 ug/ml by disc diffusion method. Conditions: read-out: DIZ. It counts as functional. For orientation: In agar diffusion tests the substance spreads into inoculated agar from a disc or well.
Data set [3] relates to Escherichia coli. The experiment in a line: Antibacterial activity against Escherichia coli at 100 ug/ml by disc diffusion method. Conditions: read-out: DIZ. The class given is functional.
In data set [4] the test system is Proteus sp. The experiment in a line: Antibacterial activity against Proteus sp. at 50 ug/ml by disc diffusion method. It counts as functional. The settings on record: Proteus sp. (in: enterobacteria); read-out: DIZ.
Data set [5] relates to Staphylococcus aureus. The experiment in a line: Antibacterial activity against Staphylococcus aureus at 50 ug/ml by disc diffusion method. It counts as functional. The settings on record: read-out: DIZ.
Data set [6] concerns Escherichia coli. Put plainly: Antibacterial activity against Escherichia coli at 50 ug/ml by disc diffusion method. Conditions: read-out: DIZ. It counts as functional.
Data set [7] deals with Escherichia coli. The experiment in a line: Antibacterial activity against Escherichia coli at 10 ug/ml by disc diffusion method. The settings on record: read-out: DIZ. The class given is functional.
The subject of data set [8] is Proteus sp. The experiment in a line: Antibacterial activity against Proteus sp. at 100 ug/ml by disc diffusion method. Conditions: Proteus sp. (in: enterobacteria); read-out: DIZ. It counts as functional.
The test system of data set [9] is Staphylococcus aureus. The experiment in a line: Antibacterial activity against Staphylococcus aureus at 100 ug/ml by disc diffusion method. The settings on record: read-out: DIZ. It counts as functional.
Data set [10] concerns Pseudomonas aeruginosa. Put plainly: Antibacterial activity against Pseudomonas aeruginosa at 10 ug/ml by disc diffusion method. Conditions: read-out: DIZ. It counts as functional.
The subject of data set [11] is Staphylococcus aureus. The experiment in a line: Antibacterial activity against Staphylococcus aureus at 10 ug/ml by disc diffusion method. The class given is functional. Conditions: read-out: DIZ.
Data set [12] concerns Pseudomonas aeruginosa. The experiment in a line: Antibacterial activity against Pseudomonas aeruginosa at 50 ug/ml by disc diffusion method. Conditions: read-out: DIZ. The class given is functional.
Data set [13] deals with Escherichia coli. The experiment in a line: Antibacterial activity against Escherichia coli at 15 ug/ml by disc diffusion method. The class given is functional. Conditions: read-out: DIZ.
The subject of data set [14] is Staphylococcus aureus. Put plainly: Antibacterial activity against Staphylococcus aureus at 15 ug/ml by disc diffusion method. It counts as functional. The settings on record: read-out: DIZ.
For data set [15], the system named is Proteus sp. The experiment in a line: Antibacterial activity against Proteus sp. at 30 ug/ml by disc diffusion method. It counts as functional. Conditions: Proteus sp. (in: enterobacteria); read-out: DIZ.
Data set [16] in a line: Solubility of the compound in ethanol. The class given is physicochemical.
Data set [17] relates to Staphylococcus aureus. Put plainly: Antibacterial activity against Staphylococcus aureus at 1 ug/ml by disc diffusion method. The class given is functional. The settings on record: read-out: DIZ.
Data set [18] deals with Proteus sp. The experiment in a line: Antibacterial activity against Proteus sp. at 1 ug/ml by disc diffusion method. The class given is functional. The settings on record: Proteus sp. (in: enterobacteria); read-out: DIZ.
Data set [19] has as its system Escherichia coli. The experiment in a line: Antibacterial activity against Escherichia coli at 1 ug/ml by disc diffusion method. The class given is functional. Conditions: read-out: DIZ.
The test system of data set [20] is Pseudomonas aeruginosa. The experiment in a line: Antibacterial activity against Pseudomonas aeruginosa at 1 ug/ml by disc diffusion method. Conditions: read-out: DIZ. It counts as functional.
Data set [21] in a line: Solubility of the compound in THF. It counts as physicochemical.
Data set [22] is described as follows: Solubility of the compound in dioxane. The class given is physicochemical.
Data set [23] relates to Staphylococcus aureus. Put plainly: Antibacterial activity against Staphylococcus aureus at 5 ug/ml by disc diffusion method. Conditions: read-out: DIZ.
Data set [24] relates to Escherichia coli. The experiment in a line: Antibacterial activity against Escherichia coli at 5 ug/ml by disc diffusion method. Conditions: read-out: DIZ.
For data set [25], the system named is Pseudomonas aeruginosa. The experiment in a line: Antibacterial activity against Pseudomonas aeruginosa at 5 ug/ml by disc diffusion method. Conditions: read-out: DIZ.
For data set [26], the system named is Escherichia coli. Put plainly: Antibacterial activity against Escherichia coli at 30 ug/ml by disc diffusion method. It counts as functional. Conditions: read-out: DIZ.
Data set [27] deals with Pseudomonas aeruginosa. Put plainly: Antibacterial activity against Pseudomonas aeruginosa at 30 ug/ml by disc diffusion method. Conditions: read-out: DIZ. It counts as functional.
The subject of data set [28] is Staphylococcus aureus. The experiment in a line: Antibacterial activity against Staphylococcus aureus at 30 ug/ml by disc diffusion method. It counts as functional. The settings on record: read-out: DIZ.

As for `Cc1cc(NS(=O)(=O)c2ccc(N)cc2)no1` [SULFAMETHOXAZOLE], the zone of inhibition at 10 µg/mL with Proteus sp. [1] was 7 mm; in the data set with Escherichia coli [7] it was 8 mm; with Pseudomonas aeruginosa [10] it was 7 mm; with Staphylococcus aureus [11], 6 mm. For the same molecule, the zone of inhibition at 100 µg/mL worked out at 10 mm with Pseudomonas aeruginosa [2], 12 mm with Escherichia coli [3], 9 mm in the data set with Proteus sp. [8] and 9 mm in the data set on Staphylococcus aureus [9]. Further, the zone of inhibition at 50 µg/mL was 8 mm in the data set on Proteus sp. [4], 8 mm in the data set on Staphylococcus aureus [5], 10 mm with Escherichia coli [6] and 8 mm in the data set with Pseudomonas aeruginosa [12].

`CC[C@H]1OC(=O)[C@H](C)[C@@H](O[C@H]2C[C@@](C)(OC)[C@@H](O)[C@H](C)O2)[C@H](C)[C@@H](O[C@@H]2O[C@H](C)C[C@H](N(C)C)[C@H]2O)[C@](C)(OC)C[C@@H](C)C(=O)[C@H](C)[C@@H](O)[C@]1(C)O` [CLARITHROMYCIN]: the figures for the zone of inhibition at 15 µg/mL in the data set with Escherichia coli [13] and in the data set with Staphylococcus aureus [14] were 16 mm and 23 mm, respectively.

With `C[C@H]1[C@H](NC(=O)/C(=N\OC(C)(C)C(=O)O)c2csc(N)n2)C(=O)N1S(=O)(=O)O` [AZTREONAM], the zone of inhibition at 30 µg/mL in the data set on Proteus sp. [15] is 24 mm.

Consider `COc1cccc(C2C(Cl)C(=O)N2c2ccc(S(=O)(=O)Nc3cc(C)on3)cc2)c1O` (configuration not stated), for which the zone of inhibition at 10 µg/mL with Proteus sp. [1] was 10 mm; in the data set on Escherichia coli [7] it was 9 mm; in the data set on Pseudomonas aeruginosa [10] it was 9 mm; in the data set on Staphylococcus aureus [11], 9 mm. For the same molecule, the zone of inhibition at 100 µg/mL with Pseudomonas aeruginosa [2] is 13 mm; in the data set with Escherichia coli [3], 14 mm; in the data set on Proteus sp. [8] it was 12 mm; with Staphylococcus aureus [9], 16 mm. Besides, the solubility entry in [16], in data set [21] and in data set [22] was “soluble” each time. Also, the zone of inhibition at 50 µg/mL turned out to be 12 mm in the data set on Proteus sp. [4], 11 mm in the data set on Staphylococcus aureus [5], 13 mm in the data set on Escherichia coli [6] and 11 mm in the data set with Pseudomonas aeruginosa [12]. Also, the zone of inhibition at 1 µg/mL in the data set with Staphylococcus aureus [17] is 7 mm; in the data set on Proteus sp. [18], 6 mm; with Escherichia coli [19] it was 7 mm; in the data set with Pseudomonas aeruginosa [20] it was 6 mm.

With `O=C(O)c1cn(C2CC2)c2cc(N3CCNCC3)c(F)cc2c1=O` [CIPROFLOXACIN], the zone of inhibition at 5 µg/mL in the data set with Staphylococcus aureus [23] is 20 mm; with Escherichia coli [24], 28 mm; with Pseudomonas aeruginosa [25], 17 mm.

For the molecule `COc1cccc(/C=N/c2ccc(S(=O)(=O)Nc3nccs3)cc2)c1O`, the zone of inhibition at 10 µg/mL was 7 mm in the data set with Proteus sp. [1], 9 mm in the data set with Escherichia coli [7], 8 mm in the data set on Pseudomonas aeruginosa [10] and 9 mm with Staphylococcus aureus [11]. Moreover, the zone of inhibition at 100 µg/mL came to 13 mm with Pseudomonas aeruginosa [2], 15 mm with Escherichia coli [3], 9 mm with Proteus sp. [8] and 14 mm in the data set on Staphylococcus aureus [9]. The solubility entry in data set [16], in data set [21] and in data set [22] was “soluble” in each case. For the same molecule, the zone of inhibition at 50 µg/mL in the data set with Proteus sp. [4] worked out at 8 mm; in the data set on Staphylococcus aureus [5], 12 mm; in the data set on Escherichia coli [6], 12 mm; with Pseudomonas aeruginosa [12], 10 mm. Moreover, the zone of inhibition at 1 µg/mL with Staphylococcus aureus [17] and with Escherichia coli [19] was 6 mm in each case.

Consider `CO[C@@H]1[C@@H](OC(N)=O)[C@@H](O)[C@H](Oc2ccc3c(O)c(NC(=O)c4ccc(O)c(CC=C(C)C)c4)c(=O)oc3c2C)OC1(C)C` [NOVOBIOCIN], for which the zone of inhibition at 30 µg/mL with Proteus sp. [15] was 20 mm; in the data set on Escherichia coli [26] it was 7 mm; in the data set with Pseudomonas aeruginosa [27] it was 14 mm; with Staphylococcus aureus [28] it was 24 mm.

On to `COc1cccc(/C=N/c2ccc(S(=O)(=O)Nc3cc(C)on3)cc2)c1O`, for which the zone of inhibition at 10 µg/mL in the data set on Proteus sp. [1] is 11 mm; in the data set with Escherichia coli [7], 8 mm; in the data set on Pseudomonas aeruginosa [10], 10 mm; in the data set on Staphylococcus aureus [11] it was 8 mm. The zone of inhibition at 100 µg/mL with Pseudomonas aeruginosa [2] was determined as 15 mm; in the data set with Escherichia coli [3] it was 14 mm; in the data set on Proteus sp. [8], 15 mm; in the data set with Staphylococcus aureus [9] it was 12 mm. Further, the solubility result in data set [16], in data set [21] and in data set [22] was “soluble” each time. Further, the zone of inhibition at 50 µg/mL in the data set on Proteus sp. [4] was determined as 14 mm; in the data set on Staphylococcus aureus [5] it was 10 mm; with Escherichia coli [6], 11 mm; with Pseudomonas aeruginosa [12] it was 11 mm. Also, the zone of inhibition at 1 µg/mL with Staphylococcus aureus [17], in the data set with Proteus sp. [18], with Escherichia coli [19] and with Pseudomonas aeruginosa [20] was 6 mm in each case.

Regarding `Nc1ccc(S(=O)(=O)Nc2nccs2)cc1` [SULFATHIAZOLE], the zone of inhibition at 10 µg/mL with Proteus sp. [1] was found to be 8 mm; in the data set on Escherichia coli [7], 7 mm; with Pseudomonas aeruginosa [10] it was 7 mm; in the data set with Staphylococcus aureus [11], 10 mm. The zone of inhibition at 100 µg/mL with Pseudomonas aeruginosa [2] stood at 9 mm; with Escherichia coli [3], 11 mm; in the data set with Proteus sp. [8], 11 mm; in the data set with Staphylococcus aureus [9], 15 mm. The zone of inhibition at 50 µg/mL in the data set on Proteus sp. [4] is 10 mm; in the data set on Staphylococcus aureus [5] it was 13 mm; in the data set on Escherichia coli [6] it was 10 mm; in the data set with Pseudomonas aeruginosa [12], 8 mm. For the same molecule, the zone of inhibition at 1 µg/mL with Staphylococcus aureus [17] was 6 mm.

Turning to `COc1cccc(C2C(Cl)C(=O)N2c2ccc(S(=O)(=O)Nc3nccs3)cc2)c1O` (configuration not stated), the zone of inhibition at 10 µg/mL was 7 mm in the data set on Proteus sp. [1], 8 mm in the data set with Escherichia coli [7], 6 mm in the data set on Pseudomonas aeruginosa [10] and 8 mm in the data set on Staphylococcus aureus [11]. Further, the zone of inhibition at 100 µg/mL came out at 11 mm in the data set on Pseudomonas aeruginosa [2], 13 mm with Escherichia coli [3], 9 mm in the data set with Proteus sp. [8] and 16 mm in the data set with Staphylococcus aureus [9]. The solubility entry in [16], in data set [21] and in [22] was “soluble” each time. Further, the zone of inhibition at 50 µg/mL in the data set on Proteus sp. [4] worked out at 8 mm; in the data set on Staphylococcus aureus [5], 12 mm; in the data set with Escherichia coli [6], 12 mm; in the data set with Pseudomonas aeruginosa [12] it was 9 mm. The zone of inhibition at 1 µg/mL in the data set with Staphylococcus aureus [17] and with Escherichia coli [19] was 6 mm each time.
